# Measured values: US10897898B2, “Herbicidal composition comprising cinmethylin and acetochlor or pretilachlor” (BASF Agro B.V., priority 2015, dated 2021)
# Assays:
# Type in all cases: in vivo
# Settings in all cases: 20 DAT
# Geranium dissectum = assay: greenhouse pre-emergence herbicidal activity on GERDI
# Description: (§1) The test plants have been seeded, separately for each species, in plastic containers in sandy loamy soil containing 5% of organic matter.
# (§2) The containers were irrigated gently to promote germination and growth and subsequently covered with transparent plastic hoods until the plants had rooted.
# (§3) The plants have been cultivated due to their individual requirements at 10-25° C. and 20-35° C. The plants were irrigated due to their necessity.
# (§4) The racemic mixture (±)-2-exo-(2-Methylbenzyloxy)-1-methyl-4-isopropyl-7-oxabicyclo[2.2.1]heptane was used as herbicide A and formulated as emulsifiable concentrates with an active ingredient concentration of 50 g/l, 100 g/l or 750 g/l respectively.
# (§5) Acetochlor (herbicide B.1) was used as an encapsulated (CS) formulation having an active ingredient concentration of 400 g/l+67 g/l dichlormid as safener.
# (§6) Pretilachlor (herbicide B.2) was used as emulsifiable concentrate (EC) formulation having an active ingredient concentration of 120 g/l.
# (§7) In the following experiments, the herbicidal activity for the individual herbicidal compositions (solo and mixture applications) was assessed 20 days after treatment (DAT).
# (§8) The evaluation for the damage on undesired weeds caused by the chemical compositions was carried out using a scale from 0 to 100%, compared to the untreated control plants. Here, 0 means no damage and 100 means complete destruction of the plants.
# (§9) E=X+Y−(X·Y/100) where X=effect in percent using herbicide A at an application rate a; • Y=effect in percent using herbicide B at application rate b; • E=expected effect (in %) of herbicide A+herbicide B at application rates a+b.
# (§10) The value E corresponds to the effect (plant damage or injury) which is to be expected if the activity of the individual compounds is additive. If the observed effect is higher than the value E calculated according to the Colby equation, a synergistic effect is present.
# (§11) Tables 1 and 2 below relate to the herbicidal activity, in greenhouse trials, of the individual actives and the combinations applied at different rates and ratios, in pre-emergence application at 20 days after treatment (DAT).
# Abutilon theophrasti = assay: greenhouse pre-emergence herbicidal activity on ABUTH
# Description: as §1, §2, §3, §4, §5, §6, §7, §8, §9, §10, §11
# Stellaria media = assay: greenhouse pre-emergence herbicidal activity on STEME
# Description: as §1, §2, §3, §4, §5, §6, §7, §8, §9, §10, §11
# Avena fatua = assay: greenhouse pre-emergence herbicidal activity on AVEFA
# Description: as §1, §2, §3, §4, §5, §6, §7, §8, §9, §10, §11
# Alopecurus myosuroides = assay: greenhouse pre-emergence herbicidal activity on ALOMY
# Description: as §1, §2, §3, §4, §5, §6, §7, §8, §9, §10, §11
# Chenopodium album = assay: greenhouse pre-emergence herbicidal activity on CHEAL
# Description: as §1, §2, §3, §4, §5, §6, §7, §8, §9
# (§12) The value E corresponds to the effect (plant damage or injury) which is to be expected if the activity of the individual compounds is additive. If the observed effect is higher than the value E calculated according to the Colby equation, a synergistic effect is present. […]
# Setaria viridis = assay: greenhouse pre-emergence herbicidal activity on SETVI
# Description: as §1, §2, §3, §4, §5, §6, §7, §8, §9, §10, §11
# Echinochloa crus-galli = assay: greenhouse pre-emergence herbicidal activity on ECHCG
# Description: as §1, §2, §3, §4
# Acetochlor (herbicide B.1) was used as an encapsulated (CS) formulation having an active ingredient concentration of 400 g/l+67 g/l dichlormid as safener. […]
# In the following experiments, the herbicidal activity for the individual herbicidal compositions (solo and mixture applications) was assessed 20 days after treatment (DAT). […]
# as §12
# Lolium multiflorum = assay: greenhouse pre-emergence herbicidal activity on LOLMU
# Description: as §1, §2, §3, §4, §5, §6, §7, §8, §9, §10, §11
# Anthemis arvensis = assay: greenhouse pre-emergence herbicidal activity on ANTAR
# Description: as §1, §2, §3, §4, §5, §6, §7, §8, §9, §10, §11
# Sorghum halepense = assay: greenhouse pre-emergence herbicidal activity on SORHA
# Description: as §1, §2, §3, §4, §5, §6, §7, §8, §9, §10, §11
# Polygonum convolvulus = assay: greenhouse pre-emergence herbicidal activity on POLCO
# Description: as §1, §2, §3, §4, §5, §6, §7, §8, §9, §10, §11
compound,measurement,setting,value
(±)-2-exo-(2-Methylbenzyloxy)-1-methyl-4-isopropyl-7-oxabicyclo[2.2.1]heptane [herbicide A],"herbicidal activity, solo application herbicide A",Geranium dissectum; 31.25 g ai/ha,50%
same,"herbicidal activity, solo application herbicide A",Geranium dissectum; 62.5 g ai/ha,60%
same,"herbicidal activity, solo application herbicide A",Geranium dissectum; 125 g ai/ha,60%
same,"herbicidal activity, solo application herbicide A",Abutilon theophrasti; 31.25 g ai/ha,30%
same,"herbicidal activity, solo application herbicide A",Abutilon theophrasti; 62.5 g ai/ha,60%
same,"herbicidal activity, solo application herbicide A",Stellaria media; 31.25 g ai/ha,30%
same,"herbicidal activity, solo application herbicide A",Stellaria media; 62.5 g ai/ha,30%
same,"herbicidal activity, solo application herbicide A",Stellaria media; 125 g ai/ha,40%
same,"herbicidal activity, solo application herbicide A",Avena fatua; 31.25 g ai/ha,0%
same,"herbicidal activity, solo application herbicide A",Avena fatua; 62.5 g ai/ha,0%
same,"herbicidal activity, solo application herbicide A",Avena fatua; 125 g ai/ha,25%
same,"herbicidal activity, solo application herbicide A",Avena fatua; 250 g ai/ha,35%
same,"herbicidal activity, solo application herbicide A",Alopecurus myosuroides; 31.25 g ai/ha,98%
same,"herbicidal activity, solo application herbicide A",Alopecurus myosuroides; 62.5 g ai/ha,98%
same,"herbicidal activity, solo application herbicide A",Alopecurus myosuroides; 125 g ai/ha,98%
same,"herbicidal activity, solo application herbicide A",Chenopodium album; 31.25 g ai/ha,40%
same,"herbicidal activity, solo application herbicide A",Setaria viridis; 31.25 g ai/ha,90%
same,"herbicidal activity, solo application herbicide A",Setaria viridis; 62.5 g ai/ha,98%
same,"herbicidal activity, solo application herbicide A",Setaria viridis; 125 g ai/ha,98%
same,"herbicidal activity, solo application herbicide A",Echinochloa crus-galli; 31.25 g ai/ha,98%
same,"herbicidal activity, solo application herbicide A",Lolium multiflorum; 31.25 g ai/ha,60%
same,"herbicidal activity, solo application herbicide A",Lolium multiflorum; 62.5 g ai/ha,75%
same,"herbicidal activity, solo application herbicide A",Lolium multiflorum; 125 g ai/ha,85%
same,"herbicidal activity, solo application herbicide A",Anthemis arvensis; 31.25 g ai/ha,0%
same,"herbicidal activity, solo application herbicide A",Anthemis arvensis; 62.5 g ai/ha,0%
same,"herbicidal activity, solo application herbicide A",Anthemis arvensis; 125 g ai/ha,0%
same,"herbicidal activity, solo application herbicide A",Anthemis arvensis; 250 g ai/ha,30%
same,"herbicidal activity, solo application herbicide A",Sorghum halepense; 62.5 g ai/ha,80%
same,"herbicidal activity, solo application herbicide A",Sorghum halepense; 125 g ai/ha,95%
same,"herbicidal activity, solo application herbicide A",Sorghum halepense; 250 g ai/ha,98%
same,"herbicidal activity, solo application herbicide A",Polygonum convolvulus; 62.5 g ai/ha,0%
same,"herbicidal activity, solo application herbicide A",Polygonum convolvulus; 125 g ai/ha,0%
same,"herbicidal activity, solo application herbicide A",Polygonum convolvulus; 250 g ai/ha,15%
"CCOCN(C(=O)CCl)c1c(C)cccc1CC [acetochlor, 2-chloro-N-(ethoxymethyl)-N-(2-ethyl-6-methylphenyl)acetamide]","herbicidal activity, solo application acetochlor",Abutilon theophrasti; 63 g ai/ha,0%
same,"herbicidal activity, solo application acetochlor",Abutilon theophrasti; 125 g ai/ha,0%
same,"herbicidal activity, solo application acetochlor",Stellaria media; 250 g ai/ha,98%
same,"herbicidal activity, solo application acetochlor",Avena fatua; 63 g ai/ha,20%
same,"herbicidal activity, solo application acetochlor",Avena fatua; 125 g ai/ha,70%
same,"herbicidal activity, solo application acetochlor",Avena fatua; 250 g ai/ha,70%
same,"herbicidal activity, solo application acetochlor",Avena fatua; 500 g ai/ha,80%
same,"herbicidal activity, solo application acetochlor",Alopecurus myosuroides; 63 g ai/ha,50%
same,"herbicidal activity, solo application acetochlor",Chenopodium album; 63 g ai/ha,40%
same,"herbicidal activity, solo application acetochlor",Lolium multiflorum; 63 g ai/ha,70%
same,"herbicidal activity, solo application acetochlor",Lolium multiflorum; 250 g ai/ha,95%
same,"herbicidal activity, solo application acetochlor",Anthemis arvensis; 63 g ai/ha,35%
same,"herbicidal activity, solo application acetochlor",Anthemis arvensis; 125 g ai/ha,70%
same,"herbicidal activity, solo application acetochlor",Anthemis arvensis; 250 g ai/ha,80%
same,"herbicidal activity, solo application acetochlor",Anthemis arvensis; 500 g ai/ha,90%
same,"herbicidal activity, solo application acetochlor",Polygonum convolvulus; 125 g ai/ha,0%
same,"herbicidal activity, solo application acetochlor",Polygonum convolvulus; 250 g ai/ha,20%
same,"herbicidal activity, solo application acetochlor",Polygonum convolvulus; 500 g ai/ha,40%
"CCCOCCN(C(=O)CCl)c1c(CC)cccc1CC [pretilachlor, 2-chloro-N-(2,6-diethylphenyl)-N-(2-propoxyethyl)acetamide]","herbicidal activity, solo application pretilachlor",Geranium dissectum; 31.3 g ai/ha,0%
same,"herbicidal activity, solo application pretilachlor",Geranium dissectum; 63 g ai/ha,0%
same,"herbicidal activity, solo application pretilachlor",Geranium dissectum; 125 g ai/ha,20%
same,"herbicidal activity, solo application pretilachlor",Stellaria media; 31.3 g ai/ha,30%
same,"herbicidal activity, solo application pretilachlor",Stellaria media; 63 g ai/ha,25%
same,"herbicidal activity, solo application pretilachlor",Stellaria media; 125 g ai/ha,30%
same,"herbicidal activity, solo application pretilachlor",Avena fatua; 63 g ai/ha,15%
same,"herbicidal activity, solo application pretilachlor",Avena fatua; 125 g ai/ha,20%
same,"herbicidal activity, solo application pretilachlor",Avena fatua; 250 g ai/ha,25%
same,"herbicidal activity, solo application pretilachlor",Alopecurus myosuroides; 63 g ai/ha,40%
same,"herbicidal activity, solo application pretilachlor",Alopecurus myosuroides; 125 g ai/ha,40%
same,"herbicidal activity, solo application pretilachlor",Chenopodium album; 31.3 g ai/ha,30%
same,"herbicidal activity, solo application pretilachlor",Setaria viridis; 31.3 g ai/ha,25%
same,"herbicidal activity, solo application pretilachlor",Setaria viridis; 63 g ai/ha,50%
same,"herbicidal activity, solo application pretilachlor",Setaria viridis; 125 g ai/ha,60%
same,"herbicidal activity, solo application pretilachlor",Echinochloa crus-galli; 31.3 g ai/ha,20%
same,"herbicidal activity, solo application pretilachlor",Lolium multiflorum; 31.3 g ai/ha,0%
same,"herbicidal activity, solo application pretilachlor",Lolium multiflorum; 63 g ai/ha,0%
same,"herbicidal activity, solo application pretilachlor",Lolium multiflorum; 125 g ai/ha,25%
same,"herbicidal activity, solo application pretilachlor",Anthemis arvensis; 31.3 g ai/ha,20%
same,"herbicidal activity, solo application pretilachlor",Anthemis arvensis; 63 g ai/ha,20%
same,"herbicidal activity, solo application pretilachlor",Anthemis arvensis; 125 g ai/ha,30%
same,"herbicidal activity, solo application pretilachlor",Anthemis arvensis; 250 g ai/ha,30%
same,"herbicidal activity, solo application pretilachlor",Sorghum halepense; 63 g ai/ha,20%
same,"herbicidal activity, solo application pretilachlor",Sorghum halepense; 125 g ai/ha,30%
same,"herbicidal activity, solo application pretilachlor",Sorghum halepense; 250 g ai/ha,55%
same,"herbicidal activity, solo application pretilachlor",Polygonum convolvulus; 63 g ai/ha,15%
same,"herbicidal activity, solo application pretilachlor",Polygonum convolvulus; 125 g ai/ha,20%
